Assay results as given in patent publication US10604554B2, “Double-acylated GLP-1 derivatives” (Novo Nordisk A/S, priority 2012, dated 2020).
Read-outs that look alike come from different tables or passages of the source.

Columns and labels:
human GLP-1 receptor [1] = biological target: T1, human GLP-1 receptor (Homo sapiens, UniProt P43220); experiment: In vitro potency (CRE luciferase; whole cells); type: cell-based; design: EC50/pM (ratio 1% HSA/0% HSA): unit not given here; conditions: for EC50: BHK cells; for EC50/pM (ratio 1% HSA/0% HSA): ratio of EC50 at 1% HSA to EC50 at 0% HSA
T1 construct: expressed in transfected cells; host or cells: BHK cells, clone FCW467-12A/KZ10-1 (parent line BHKTS13), further transfected with CRE luciferase
T1 sequence (P43220 24-463): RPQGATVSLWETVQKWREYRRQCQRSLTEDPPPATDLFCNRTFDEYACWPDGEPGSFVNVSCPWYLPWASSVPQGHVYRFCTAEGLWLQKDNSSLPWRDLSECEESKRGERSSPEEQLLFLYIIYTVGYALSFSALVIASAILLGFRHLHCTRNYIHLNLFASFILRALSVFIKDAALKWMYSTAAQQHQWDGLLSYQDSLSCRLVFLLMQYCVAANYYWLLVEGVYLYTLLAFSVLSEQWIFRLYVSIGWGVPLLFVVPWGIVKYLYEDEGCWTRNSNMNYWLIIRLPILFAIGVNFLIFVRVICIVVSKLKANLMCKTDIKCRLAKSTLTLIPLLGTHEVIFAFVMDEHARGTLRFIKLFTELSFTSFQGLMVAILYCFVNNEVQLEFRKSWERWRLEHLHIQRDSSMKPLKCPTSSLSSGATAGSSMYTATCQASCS
Summary of the method: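 Reporter: CRE-luciferase in BHK cells stably expressing human GLP-1R, 5×10^3 cells/well; compounds tested in buffer containing 0% or 1% HSA.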

in vivo [2] = conditions: male, Göttingen, minipig, iv
Protocol: (§1) The purpose of this study is to determine the protraction in vivo of the GLP-1 derivatives after i.v. administration to minipigs, i.e. the prolongation of their time of action. This is done in a pharmacokinetic (PK) study, where the terminal half-life of the derivative in question is determined. By terminal half-life is generally meant the period of time it takes to halve a certain plasma concentration, measured after the initial distribution phase.
(§2) Study A: Male Göttingen minipigs were obtained from Ellegaard Göttingen Minipigs (Dalmose, Denmark) approximately 7-14 months of age and weighing from approximately 16-35 kg were used in the studies. The minipigs were housed individually and fed restrictedly once or twice daily with SDS minipig diet (Special Diets Services, Essex, UK). After at least 2 weeks of acclimatisation two permanent central venous catheters were implanted in vena cava caudalis or cranialis in each animal. The animals were allowed 1 week recovery after the surgery, and were then used for repeated pharmacokinetic studies with a suitable wash-out period between successive GLP-1 derivative dosings.
(§3) The animals were fasted for approximately 18 h before dosing and from 0 to 4 h after dosing, but had ad libitum access to water during the whole period.
(§4) The GLP-1 derivatives were dissolved in 50 mM sodium phosphate, 145 mM sodium chloride, 0.05% tween 80, pH 7.4 to a concentration of usually from 20-60 nmol/ml. […] Blood samples (for example 0.8 ml) were collected in EDTA buffer (8 mM) and then centrifuged at 4° C. and 1942 G for 10 minutes.
(§5) Study B: Male Göttingen minipigs were obtained from Ellegaard Göttingen Minipigs (Dalmose, Denmark) approximately 5 months of age and weighing from approximately 9 kg were used in the studies. The minipigs were housed in pens with straw as bedding, six together in each pen and fed restrictedly once or twice daily with Altromin 9023 minipig diet (Chr. Petersen A/S, DK-4100 Ringsted) or Standard SMP(E) minipig diet (Special Diet Services (SDS), UK). The pigs were used for repeated pharmacokinetic studies with a suitable wash-out period between successive GLP-1 derivative dosings.
(§6) The GLP-1 derivatives were dissolved in 50 mM sodium phosphate, 145 mM sodium chloride, 0.05% tween 80, pH 7.4 to a concentration of usually from 20-60 nmol/ml. Intravenous injections (the volume corresponding to usually 2 nmol/kg, for example 0.1 ml/kg) of the compounds were given as intravenous injections via a Venflon inserted in an ear vein, while they are placed unanaesthetised in a sling. The dose volume was 0.1 ml/kg, and blood was sampled at predefined time points for up till 17 days post dosing (samples was taken with syringe from a jugular vein).
(§7) Individual plasma concentration-time profiles were analyzed by a non-compartmental model in Phoenix WinNonLin ver. […] (Pharsight Inc., Mountain View, Calif., USA), and the resulting terminal half-lives (harmonic mean) determined.

in vivo [3] = conditions: male, Sprague Dawley, rat, iv
Protocol: (§8) The purpose of this Example is to investigate half-life in vivo in rat.
(§9) In vivo pharmacokinetic studies in rats were performed with the GLP-1 derivatives of a number of the Example compounds, as described in the following.
(§10) Male Sprague Dawley rats of same age with a body weight of approximately 400 g were obtained from Taconic (Denmark) and assigned to the treatments by simple randomisation on body weight, approximately 4 rats per group.
(§11) The GLP-1 derivatives (approximately 6 nmol/ml) were dissolved in 50 mM sodium phosphate, 145 mM sodium chloride, 0.05% tween 80, pH 7.4. Intravenous injections (1.0 ml/kg) of the compounds were given with a syringe in the tail vein of conscious rats. Blood was sampled from vena sublingualis for 5 days post dosing. Blood samples (200 μl) were collected in EDTA buffer (8 mM) and then centrifuged at 4° C. and 10000 G for 5 minutes. Plasma samples were kept at −20° C. until analyzed for plasma concentration of the respective GLP-1 compound.
(§12) The donor beads were coated with streptavidin, while acceptor beads were conjugated with a monoclonal antibody recognising a mid-/C-terminal epitope of the peptide. Another monoclonal antibody, specific for the N-terminus, was biotinylated. The three reactants were combined with the analyte and formed a two-sited immuno-complex. Illumination of the complex released singlet oxygen atoms from the donor beads, which were channeled into the acceptor beads and triggered chemiluminescence which was measured in an Envision plate reader. The amount of light was proportional to the concentration of the compound.
(§13) Plasma concentration-time profiles were analyzed using Phoenix WinNonLin ver. 6.2, Pharsight Inc., Mountain View, Calif., USA), and the half-life (T1/2) calculated using individual plasma concentration-time profiles from each animal.

human GLP-1 receptor [4] = biological target: T1, human GLP-1 receptor; experiment: GLP-1 receptor binding (SPA, displacement of 125I-GLP-1)
Summary of the method: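 Tracer [125I]-GLP-1(7-36)NH2 at 0.06 nM final competed on hamster stably transfected cell membranes captured by WGA SPA beads; 120 min, 30 °C, scintillation count.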

[5] = Pharmacokinetic (PK) study in minipig; conditions: male, Göttingen, in vivo, iv
Protocol: as §1, §2, §3, §4, §5, §6, §7

[6] = Pharmacokinetic (PK) study in rat; conditions: male, Sprague Dawley, in vivo, iv, 6 nmol/kg
Protocol: as §8, §9, §10, §11, §12, §13

[7] = 0% HSA, read-out: In vitro potency (CRE luciferase) EC50 (0% HSA)
[8] = In vitro potency (CRE luciferase) EC50 (1% HSA), 1% HSA
[9] = 0.001% HSA (low albumin), read-out: Receptor binding affinity IC50 (low HSA)
[10] = Receptor binding affinity IC50 (high HSA), 2.0% HSA (high albumin)
[11] = Receptor binding affinity IC50 (low HSA), 0.001% HSA (low albumin)

EC50 (human GLP-1 receptor [1]; [7]) [nM] | half-life (in vivo [2]) [h] | half-life (in vivo [3]) [h] | IC50 (human GLP-1 receptor [4]; [9]) [nM] | IC50 (high HSA) (human GLP-1 receptor [4]; Receptor binding affinity IC50 (high HSA), 2.0% HSA (high albumin), heading: Receptor binding affinity IC50) [nM] | SMILES | EC50 (human GLP-1 receptor [1]; [8]) [nM] | EC50/pM (ratio 1% HSA/0% HSA) (human GLP-1 receptor [1]) | half-life [5] [h] | EC50 (human GLP-1 receptor [1]; In vitro potency (CRE luciferase) EC50 (0% HSA), 0% HSA) [nM] | half-life [6] [h] | IC50 (human GLP-1 receptor [4]; [10]) [nM] | IC50 (human GLP-1 receptor [4]; [11]) [nM]
0.008 | 97 | 28 | 0.84 | – | CC[C@H](C)[C@H](NC(=O)[C@H](Cc1ccccc1)NC(=O)[C@H](CCC(=O)O)NC(=O)[C@H](CCCCNC(=O)[C@@H](N)CCCCNC(=O)COCCOCCNC(=O)COCCOCCNC(=O)CC[C@H](NC(=O)CCCCCCCCCCCCCCC(=O)O)C(=O)O)NC(=O)[C@H](C)NC(=O)[C@H](C)NC(=O)[C@H](CCC(N)=O)NC(=O)CNC(=O)[C@H](CCC(=O)O)NC(=O)[C@H](CC(C)C)NC(=O)[C@H](Cc1ccc(O)cc1)NC(=O)[C@H](CO)NC(=O)[C@H](CO)NC(=O)[C@@H](NC(=O)[C@H](CC(=O)O)NC(=O)[C@H](CO)NC(=O)[C@@H](NC(=O)[C@H](Cc1ccccc1)NC(=O)[C@@H](NC(=O)CNC(=O)[C@H](CCC(=O)O)NC(=O)C(C)(C)NC(=O)[C@@H](N)Cc1c[nH]cn1)[C@@H](C)O)[C@@H](C)O)C(C)C)C(=O)N[C@@H](C)C(=O)N[C@@H](Cc1c[nH]c2ccccc12)C(=O)N[C@@H](CC(C)C)C(=O)N[C@H](C(=O)N[C@@H](CCCNC(=N)N)C(=O)NCC(=O)N[C@@H](CCCNC(=N)N)C(=O)N[C@@H](CCCCNC(=O)[C@@H](N)CCCCNC(=O)COCCOCCNC(=O)COCCOCCNC(=O)CC[C@H](NC(=O)CCCCCCCCCCCCCCC(=O)O)C(=O)O)C(=O)O)C(C)C [Example 10, N^ε26-[(2S)-2-amino-6-[[2-[2-[2-[[2-[2-[2-[[(4S)-4-carboxy-4-(15-carboxypentadecanoylamino)butanoyl]amino]ethoxy]ethoxy]acetyl]amino]ethoxy]ethoxy]acetyl]amino]hexanoyl], N^ε37-[(2S)-2-amino-6-[[2-[2-[2-[[2-[2-[2-[[(4S)-4-carboxy-4-(15-carboxypentadecanoylamino)butanoyl]amino]ethoxy]ethoxy]acetyl]amino]ethoxy]ethoxy]acetyl]amino]hexanoyl]-[Aib^8,Arg^34,Lys^37]-GLP-1-(7-37)-peptide] | 3.63 | – | – | – | – | – | –
0.022 | – | 21 | 0.25 | 689 | CC[C@H](C)[C@H](NC(=O)[C@H](Cc1ccccc1)NC(=O)[C@H](CCC(=O)O)NC(=O)[C@H](CCCCNC(=O)[C@@H](N)CCCCNC(=O)[C@@H](N)CCCCNC(=O)CC[C@H](NC(=O)CCCCCCCCCCCCCCCCC(=O)O)C(=O)O)NC(=O)[C@H](C)NC(=O)[C@H](C)NC(=O)[C@H](CCC(N)=O)NC(=O)CNC(=O)[C@H](CCC(=O)O)NC(=O)[C@H](CC(C)C)NC(=O)[C@H](Cc1ccc(O)cc1)NC(=O)[C@H](CO)NC(=O)[C@H](CO)NC(=O)[C@@H](NC(=O)[C@H](CC(=O)O)NC(=O)[C@H](CO)NC(=O)[C@@H](NC(=O)[C@H](Cc1ccccc1)NC(=O)[C@@H](NC(=O)CNC(=O)[C@H](CCC(=O)O)NC(=O)C(C)(C)NC(=O)[C@@H](N)Cc1c[nH]cn1)[C@@H](C)O)[C@@H](C)O)C(C)C)C(=O)N[C@@H](C)C(=O)N[C@@H](Cc1c[nH]c2ccccc12)C(=O)N[C@@H](CC(C)C)C(=O)N[C@H](C(=O)N[C@@H](CCCNC(=N)N)C(=O)NCC(=O)N[C@@H](CCCNC(=N)N)C(=O)N[C@@H](CCCCNC(=O)[C@@H](N)CCCCNC(=O)[C@@H](N)CCCCNC(=O)CC[C@H](NC(=O)CCCCCCCCCCCCCCCCC(=O)O)C(=O)O)C(=O)O)C(C)C [Example 27, N^ε26-[(2S)-2-amino-6-[[(2S)-2-amino-6-[[(4S)-4-carboxy-4-(17-carboxyheptadecanoylamino)butanoyl]amino]hexanoyl]amino]hexanoyl], N^ε37-[(2S)-2-amino-6-[[(2S)-2-amino-6-[[(4S)-4-carboxy-4-(17-carboxyheptadecanoylamino)butanoyl]amino]hexanoyl]amino]hexanoyl]-[Aib^8,Arg^34,Lys^37]-GLP-1-(7-37)-peptide] | 6.19 | 276 | – | – | – | – | –
– | – | – | – | – | CC[C@H](C)[C@H](NC(=O)[C@H](Cc1ccccc1)NC(=O)[C@H](CCC(=O)O)NC(=O)[C@H](CCCCNC(=O)[C@@H](N)CCCCNC(=O)[C@@H](N)CCCCNC(=O)CC[C@H](NC(=O)CC[C@H](NC(=O)CCCCCCCCCCCOc1ccc(C(=O)O)cc1)C(=O)O)C(=O)O)NC(=O)[C@H](C)NC(=O)[C@H](C)NC(=O)[C@H](CCC(N)=O)NC(=O)CNC(=O)[C@H](CCC(=O)O)NC(=O)[C@H](CC(C)C)NC(=O)[C@H](Cc1ccc(O)cc1)NC(=O)[C@H](CO)NC(=O)[C@H](CO)NC(=O)[C@@H](NC(=O)[C@H](CC(=O)O)NC(=O)[C@H](CO)NC(=O)[C@@H](NC(=O)[C@H](Cc1ccccc1)NC(=O)[C@@H](NC(=O)CNC(=O)[C@H](CCC(=O)O)NC(=O)C(C)(C)NC(=O)[C@@H](N)Cc1c[nH]cn1)[C@@H](C)O)[C@@H](C)O)C(C)C)C(=O)N[C@@H](C)C(=O)N[C@@H](Cc1c[nH]c2ccccc12)C(=O)N[C@@H](CC(C)C)C(=O)N[C@H](C(=O)N[C@@H](CCCNC(=N)N)C(=O)NCC(=O)N[C@@H](CCCNC(=N)N)C(=O)N[C@@H](CCCCNC(=O)[C@@H](N)CCCCNC(=O)[C@@H](N)CCCCNC(=O)CC[C@H](NC(=O)CC[C@H](NC(=O)CCCCCCCCCCCOc1ccc(C(=O)O)cc1)C(=O)O)C(=O)O)C(=O)O)C(C)C [Example 16, N^ε26-[(2S)-2-amino-6-[[(2S)-2-amino-6-[[(4S)-4-carboxy-4-[[(4S)-4-carboxy-4-[12-(4-carboxyphenoxy)dodecanoylamino]butanoyl]amino]butanoyl]amino]hexanoyl]amino]hexanoyl], N^ε37-[(2S)-2-amino-6-[[(2S)-2-amino-6-[[(4S)-4-carboxy-4-[[(4S)-4-carboxy-4-[12-(4-carboxyphenoxy)dodecanoylamino]butanoyl]amino]butanoyl]amino]hexanoyl]amino]hexanoyl]-[Aib^8,Arg^34,Lys^37]-GLP-1-(7-37)-peptide] | 0.047 | 14 | 64 | 0.0033 | 17 | 199 | 0.24
– | – | – | – | – | CC[C@H](C)[C@H](NC(=O)[C@H](Cc1ccccc1)NC(=O)[C@H](CCC(=O)O)NC(=O)[C@H](CCCCNC(=O)[C@@H](N)CCCCNC(=O)[C@@H](N)CCCCNC(=O)CC[C@H](NC(=O)CCCCCCCCCCCOc1ccc(C(=O)O)cc1)C(=O)O)NC(=O)[C@H](C)NC(=O)[C@H](C)NC(=O)[C@H](CCC(N)=O)NC(=O)CNC(=O)[C@H](CCC(=O)O)NC(=O)[C@H](CC(C)C)NC(=O)[C@H](Cc1ccc(O)cc1)NC(=O)[C@H](CO)NC(=O)[C@H](CO)NC(=O)[C@@H](NC(=O)[C@H](CC(=O)O)NC(=O)[C@H](CO)NC(=O)[C@@H](NC(=O)[C@H](Cc1ccccc1)NC(=O)[C@@H](NC(=O)CNC(=O)[C@H](CCC(=O)O)NC(=O)C(C)(C)NC(=O)[C@@H](N)Cc1c[nH]cn1)[C@@H](C)O)[C@@H](C)O)C(C)C)C(=O)N[C@@H](C)C(=O)N[C@@H](Cc1c[nH]c2ccccc12)C(=O)N[C@@H](CC(C)C)C(=O)N[C@H](C(=O)N[C@@H](CCCNC(=N)N)C(=O)NCC(=O)N[C@@H](CCCNC(=N)N)C(=O)N[C@@H](CCCCNC(=O)[C@@H](N)CCCCNC(=O)[C@@H](N)CCCCNC(=O)CC[C@H](NC(=O)CCCCCCCCCCCOc1ccc(C(=O)O)cc1)C(=O)O)C(=O)O)C(C)C [Example 7, N^ε26-[(2S)-2-amino-6-[[(2S)-2-amino-6-[[(4S)-4-carboxy-4-[12-(4-carboxyphenoxy)dodecanoylamino]butanoyl]amino]hexanoyl]amino]hexanoyl], N^ε37-[(2S)-2-amino-6-[[(2S)-2-amino-6-[[(4S)-4-carboxy-4-[12-(4-carboxyphenoxy)dodecanoylamino]butanoyl]amino]hexanoyl]amino]hexanoyl]-[Aib^8,Arg^34,Lys^37]-GLP-1-(7-37)-peptide] | 0.096 | – | 69 | – | 17 | 106 | 0.13
